{"source": "patent US20230041138A1", "about": "“TREATMENT OF HIS HYPORESPONDERS” (NewAmsterdam Pharma B.V. (Dutch Registration No. 55971946), priority 2021, published 2023)", "origin": "cited, not measured here", "test_system": "LDL-C", "details": "rosuvastatin 20 mg; cited from earlier work"}
{"smiles": "CC(C)c1nc(N(C)S(C)(=O)=O)nc(-c2ccc(F)cc2)c1/C=C/[C@@H](O)C[C@@H](O)CC(=O)O", "note": "[rosuvastatin]", "values": [{"measurement": "median LDL-C lowering response", "value": 50, "unit": "%"}, {"measurement": "share of patients with LDL-C reduction <50%", "value": 43, "unit": "%"}]}
